The supplement of paper PMC10307832

Assays:
Test in all cases: relative viability (nuclei count vs DMSO), 5 days (fraction); higher = more cells survive
NCI-H2347 = tested on: NCI-H2347
Outline: (§1)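 Relative viability was taken as the ratio of nuclei in treated wells to nuclei in vehicle wells. Lung cancer cell lines in 1536-well plates received compounds by pin tool one day after seeding, either one drug alone or a fixed anchor-drug dose plus five library-drug doses (not always all listed) in √10 steps. Nuclei were counted on 4× images after 5 days of treatment, and values are medians of duplicate plates.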

NCI-H522 = tested on: NCI-H522
Outline: as §1

EMC-BAC-2 = tested on: EMC-BAC-2
Outline: as §1

NCI-H3122 = tested on: NCI-H3122
Outline: as §1

HCC-44 = tested on: HCC-44
Outline: as §1

NCI-H838 = tested on: NCI-H838
Outline: as §1

NCI-H1395 = tested on: NCI-H1395
Outline: as §1

NCI-H2023 = tested on: NCI-H2023
Outline: as §1

NCI-H1993 = tested on: NCI-H1993
Outline: as §1

201T = tested on: 201T
Outline: as §1

NCI-H727 = tested on: NCI-H727
Outline: as §1

NCI-H23 = tested on: NCI-H23
Outline: as §1

BEN = tested on: BEN
Outline: as §1

LCLC-103H = tested on: LCLC-103H
Outline: as §1

NCI-H647 = tested on: NCI-H647
Outline: as §1

NCI-H2126 = tested on: NCI-H2126
Outline: as §1

NCI-H441 = tested on: NCI-H441
Outline: as §1

NCI-H596 = tested on: NCI-H596
Outline: as §1

NCI-H2087 = tested on: NCI-H2087
Outline: as §1

NCI-H650 = tested on: NCI-H650
Outline: as §1

HARA = tested on: HARA
Outline: as §1

LOU-NH91 = tested on: LOU-NH91
Outline: as §1

In the case of `O=c1cc(-c2cccc3c2Sc2ccccc2S3)oc(N2CCOCC2)c1` + O=C(c1cc(Cc2n[nH]c(=O)c3ccccc23)ccc1F)N1CCN(C(=O)C2CC2)CC1 [Olaparib] (partner 8 µM), the relative viability (NCI-H2347; first compound 0.08 µM) is reported as 0.53, the relative viability (NCI-H2347; first compound 0.253 µM) is reported as 0.561 and the relative viability (NCI-H2347; first compound 0.8 µM) is reported as 0.591. For the same molecule, the relative viability (NCI-H2347; first compound 2.53 µM) was 0.585, the relative viability (NCI-H2347; first compound 8 µM) was 0.638 and the relative viability (NCI-H522; first compound 0.08 µM) was 0.615. The relative viability (NCI-H522; first compound 0.253 µM) was 0.621, the relative viability (NCI-H522; first compound 0.8 µM) was 0.612 and the relative viability (NCI-H522; first compound 2.53 µM) was 0.723. It also gave a relative viability (NCI-H522; first compound 8 µM) of 0.576, a relative viability (EMC-BAC-2; first compound 0.08 µM) of 0.523 and a relative viability (EMC-BAC-2; first compound 0.253 µM) of 0.568. For the same molecule, the relative viability (EMC-BAC-2; first compound 0.8 µM) was 0.518, the relative viability (EMC-BAC-2; first compound 2.53 µM) was 0.571 and the relative viability (EMC-BAC-2; first compound 8 µM) was 0.514. It also gave a relative viability (NCI-H3122; first compound 0.08 µM) of 0.658, a relative viability (NCI-H3122; first compound 0.253 µM) of 0.745 and a relative viability (NCI-H3122; first compound 0.8 µM) of 0.584. For the same molecule, the relative viability (NCI-H3122; first compound 2.53 µM) was 0.604, the relative viability (NCI-H3122; first compound 8 µM) was 0.63 and the relative viability (HCC-44; first compound 0.08 µM) was 0.927. For the same molecule, the relative viability (HCC-44; first compound 0.253 µM) was 1.02, the relative viability (HCC-44; first compound 0.8 µM) was 0.972 and the relative viability (HCC-44; first compound 2.53 µM) was 1.02. For the same molecule, the relative viability (HCC-44; first compound 8 µM) was 0.951, the relative viability (NCI-H838; first compound 0.08 µM) was 0.9 and the relative viability (NCI-H838; first compound 0.253 µM) was 1.1. It also gave a relative viability (NCI-H838; first compound 0.8 µM) of 0.752, a relative viability (NCI-H838; first compound 2.53 µM) of 0.715 and a relative viability (NCI-H838; first compound 8 µM) of 0.546. For the same molecule, the relative viability (NCI-H1395; first compound 0.08 µM) was 0.404, the relative viability (NCI-H1395; first compound 0.253 µM) was 0.416 and the relative viability (NCI-H1395; first compound 0.8 µM) was 0.513. For the same molecule, the relative viability (NCI-H1395; first compound 2.53 µM) was 0.471, the relative viability (NCI-H1395; first compound 8 µM) was 0.47 and the relative viability (NCI-H2023; first compound 0.08 µM) was 0.445. For the same molecule, the relative viability (NCI-H2023; first compound 0.253 µM) was 0.513, the relative viability (NCI-H2023; first compound 0.8 µM) was 0.435 and the relative viability (NCI-H2023; first compound 2.53 µM) was 0.345. The relative viability (NCI-H2023; first compound 8 µM) was 0.348, the relative viability (NCI-H1993; first compound 0.08 µM) was 1.05 and the relative viability (NCI-H1993; first compound 0.253 µM) was 1.1. It also gave a relative viability (NCI-H1993; first compound 0.8 µM) of 0.986, a relative viability (NCI-H1993; first compound 2.53 µM) of 0.965 and a relative viability (NCI-H1993; first compound 8 µM) of 1.12. For the same molecule, the relative viability (201T; first compound 0.08 µM) was 0.688, the relative viability (201T; first compound 0.253 µM) was 0.909 and the relative viability (201T; first compound 0.8 µM) was 0.861. It also gave a relative viability (201T; first compound 2.53 µM) of 0.84, a relative viability (201T; first compound 8 µM) of 0.703 and a relative viability (NCI-H727; first compound 0.08 µM) of 0.64. For the same molecule, the relative viability (NCI-H727; first compound 0.253 µM) was 0.679, the relative viability (NCI-H727; first compound 2.53 µM) was 0.615 and the relative viability (NCI-H727; first compound 8 µM) was 0.68. It also gave a relative viability (NCI-H23; first compound 0.08 µM) of 0.313, a relative viability (NCI-H23; first compound 0.253 µM) of 0.309 and a relative viability (NCI-H23; first compound 0.8 µM) of 0.24. The relative viability (NCI-H23; first compound 2.53 µM) was 0.269, the relative viability (NCI-H23; first compound 8 µM) was 0.268 and the relative viability (BEN; first compound 0.08 µM) was 0.998. The relative viability (BEN; first compound 0.253 µM) was 1.15, the relative viability (BEN; first compound 0.8 µM) was 1.04 and the relative viability (BEN; first compound 2.53 µM) was 0.956. It also gave a relative viability (BEN; first compound 8 µM) of 1.07, a relative viability (LCLC-103H; first compound 0.08 µM) of 0.765 and a relative viability (LCLC-103H; first compound 0.253 µM) of 0.776. It also gave a relative viability (LCLC-103H; first compound 0.8 µM) of 0.873, a relative viability (LCLC-103H; first compound 2.53 µM) of 0.736 and a relative viability (LCLC-103H; first compound 8 µM) of 0.71. For the same molecule, the relative viability (NCI-H647; first compound 0.08 µM) was 0.642, the relative viability (NCI-H647; first compound 0.253 µM) was 0.851 and the relative viability (NCI-H647; first compound 0.8 µM) was 0.596. For the same molecule, the relative viability (NCI-H647; first compound 2.53 µM) was 0.452, the relative viability (NCI-H647; first compound 8 µM) was 0.272 and the relative viability (NCI-H2126; first compound 0.08 µM) was 1.06. For the same molecule, the relative viability (NCI-H2126; first compound 0.253 µM) was 0.991, the relative viability (NCI-H2126; first compound 0.8 µM) was 1.01 and the relative viability (NCI-H2126; first compound 2.53 µM) was 0.9. The relative viability (NCI-H2126; first compound 8 µM) was 0.91, the relative viability (NCI-H441; first compound 0.08 µM) was 0.603 and the relative viability (NCI-H441; first compound 0.253 µM) was 0.708. The relative viability (NCI-H441; first compound 0.8 µM) was 0.518, the relative viability (NCI-H441; first compound 2.53 µM) was 0.461 and the relative viability (NCI-H441; first compound 8 µM) was 0.432. It also gave a relative viability (NCI-H596; first compound 0.08 µM) of 0.664, a relative viability (NCI-H596; first compound 0.253 µM) of 0.631 and a relative viability (NCI-H596; first compound 0.8 µM) of 0.504. It also gave a relative viability (NCI-H596; first compound 2.53 µM) of 0.587, a relative viability (NCI-H596; first compound 8 µM) of 0.585 and a relative viability (NCI-H2087; first compound 0.08 µM) of 0.604. The relative viability (NCI-H2087; first compound 0.253 µM) was 0.605, the relative viability (NCI-H2087; first compound 0.8 µM) was 0.682 and the relative viability (NCI-H2087; first compound 2.53 µM) was 0.638. It also gave a relative viability (NCI-H2087; first compound 8 µM) of 0.561, a relative viability (NCI-H650; first compound 0.08 µM) of 0.397 and a relative viability (NCI-H650; first compound 0.253 µM) of 0.402. The relative viability (NCI-H650; first compound 0.8 µM) was 0.424, the relative viability (NCI-H650; first compound 2.53 µM) was 0.378 and the relative viability (NCI-H650; first compound 8 µM) was 0.415. For the same molecule, the relative viability (HARA; first compound 0.08 µM) was 1.13, the relative viability (HARA; first compound 0.253 µM) was 0.711 and the relative viability (HARA; first compound 0.8 µM) was 0.774. It also gave a relative viability (HARA; first compound 2.53 µM) of 0.629, a relative viability (HARA; first compound 8 µM) of 0.777 and a relative viability (LOU-NH91; first compound 0.08 µM) of 0.875. It also gave a relative viability (LOU-NH91; first compound 0.253 µM) of 0.945, a relative viability (LOU-NH91; first compound 0.8 µM) of 0.866 and a relative viability (LOU-NH91; first compound 2.53 µM) of 0.863. For the same molecule, the relative viability (LOU-NH91; first compound 8 µM) was 0.917.
